Test results published in US20240210412A1, “SULFONYL-TRIAZOLE COMPOUNDS USEFUL AS LIGANDS AND INHIBITORS OF PROSTAGLANDIN REDUCTASE 2” (University of Virginia Patent Foundation, priority 2021, published 2024).

Assays:
Test in all cases: SILAC LC-MS ABPP
Assay type in all cases: cell-based
Details in all cases: 25 μM 2 h, live DM93 cells
Q13151 = molecular target: T1, Q13151 (Homo sapiens, UniProt Q13151)
T1 construct: performing SuTEx compound screening directly in cells; endogenous in cells; host or cells: DM93 cells (SILAC), soluble fraction
In short: (§1)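 Ligand engagement is measured as loss of HHS-475 probe labelling at specific tyrosines. SILAC DM93 melanoma cells were treated in situ (25 μM ligand vs DMSO, 2 h, 37 °C; then 100 μM probe, 2 h), and modified peptides were quantified by high-resolution LC-MS/MS after desthiobiotin tagging and avidin capture.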

Q6N069 = molecular target: T2, Q6N069 (Homo sapiens, UniProt Q6N069)
T2 construct: performing SuTEx compound screening directly in cells; endogenous in cells; host or cells: DM93 cells (SILAC), soluble fraction
In short: as §1

Q9BUT1 = molecular target: T3, Q9BUT1 (Homo sapiens, UniProt Q9BUT1)
T3 construct: endogenous in cells; host or cells: DM93 cells (SILAC), treated live; soluble proteome analysed
In short: as §1

Q9BXS6 = molecular target: T4, Q9BXS6 (Homo sapiens, UniProt Q9BXS6)
T4 construct: endogenous in cells; host or cells: DM93 cells (SILAC), treated live; soluble proteome analysed
In short: as §1

Q9NYF8 = molecular target: T5, Q9NYF8 (Homo sapiens, UniProt Q9NYF8)
T5 construct: endogenous in cells; host or cells: DM93 cells (SILAC)
In short: as §1

O43390 = molecular target: T6, O43390 (Homo sapiens, UniProt O43390)
T6 construct: endogenous in cells; host or cells: DM93
In short: as §1

O43852 = molecular target: T7, O43852 (Homo sapiens, UniProt O43852)
T7 construct: endogenous in cells; host or cells: DM93
In short: as §1

Q00341 = molecular target: T8, Q00341 (Homo sapiens, UniProt Q00341)
T8 construct: performing SuTEx compound screening directly in cells; endogenous in cells; host or cells: DM93 cells (SILAC)
In short: as §1

Q9HCE5 = molecular target: T9, Q9HCE5 (Homo sapiens, UniProt Q9HCE5)
T9 construct: endogenous in cells; host or cells: DM93 cells (SILAC), treated live; soluble proteome analysed
In short: as §1

Q9UFN0 = molecular target: T10, Q9UFN0 (Homo sapiens, UniProt Q9UFN0)
T10 construct: endogenous in cells; host or cells: DM93 cells (SILAC)
In short: as §1

P50851 = molecular target: T11, P50851 (Homo sapiens, UniProt P50851)
T11 construct: Probe-modified proteins from the soluble fraction were conjugated to a desthiobiotin-azide tag; endogenous in cells; host or cells: DM93 cells (SILAC)
In short: as §1

P55084 = molecular target: T12, P55084 (Homo sapiens, UniProt P55084)
T12 construct: endogenous in cells; host or cells: DM93 cells (SILAC)
In short: as §1

P57081 = molecular target: T13, P57081 (Homo sapiens, UniProt P57081)
T13 construct: Probe-modified proteins from the soluble fraction were conjugated to a desthiobiotin-azide tag; endogenous in cells; host or cells: DM93 cells (SILAC)
In short: as §1

Q13428 = molecular target: T14, Q13428 (Homo sapiens, UniProt Q13428)
T14 construct: performing SuTEx compound screening directly in cells; endogenous in cells; host or cells: DM93 cells (SILAC), soluble fraction
In short: as §1

Q5T6F2 = molecular target: T15, Q5T6F2 (Homo sapiens, UniProt Q5T6F2)
T15 construct: performing SuTEx compound screening directly in cells; endogenous in cells; host or cells: DM93 cells (SILAC), soluble fraction
In short: as §1

Q9Y2H2 = molecular target: T16, Q9Y2H2 (Homo sapiens, UniProt Q9Y2H2)
T16 construct: endogenous in cells; host or cells: DM93 cells (SILAC)
In short: as §1

Q9H788 = molecular target: T17, Q9H788 (Homo sapiens, UniProt Q9H788)
T17 construct: endogenous in cells; host or cells: DM93 cells (SILAC), treated live; soluble proteome analysed
In short: as §1

Q9HAU0 = molecular target: T18, Q9HAU0 (Homo sapiens, UniProt Q9HAU0)
T18 construct: endogenous in cells; host or cells: DM93 cells (SILAC), treated live; soluble proteome analysed
In short: as §1

T15 sequence (Q5T6F2 whole entry): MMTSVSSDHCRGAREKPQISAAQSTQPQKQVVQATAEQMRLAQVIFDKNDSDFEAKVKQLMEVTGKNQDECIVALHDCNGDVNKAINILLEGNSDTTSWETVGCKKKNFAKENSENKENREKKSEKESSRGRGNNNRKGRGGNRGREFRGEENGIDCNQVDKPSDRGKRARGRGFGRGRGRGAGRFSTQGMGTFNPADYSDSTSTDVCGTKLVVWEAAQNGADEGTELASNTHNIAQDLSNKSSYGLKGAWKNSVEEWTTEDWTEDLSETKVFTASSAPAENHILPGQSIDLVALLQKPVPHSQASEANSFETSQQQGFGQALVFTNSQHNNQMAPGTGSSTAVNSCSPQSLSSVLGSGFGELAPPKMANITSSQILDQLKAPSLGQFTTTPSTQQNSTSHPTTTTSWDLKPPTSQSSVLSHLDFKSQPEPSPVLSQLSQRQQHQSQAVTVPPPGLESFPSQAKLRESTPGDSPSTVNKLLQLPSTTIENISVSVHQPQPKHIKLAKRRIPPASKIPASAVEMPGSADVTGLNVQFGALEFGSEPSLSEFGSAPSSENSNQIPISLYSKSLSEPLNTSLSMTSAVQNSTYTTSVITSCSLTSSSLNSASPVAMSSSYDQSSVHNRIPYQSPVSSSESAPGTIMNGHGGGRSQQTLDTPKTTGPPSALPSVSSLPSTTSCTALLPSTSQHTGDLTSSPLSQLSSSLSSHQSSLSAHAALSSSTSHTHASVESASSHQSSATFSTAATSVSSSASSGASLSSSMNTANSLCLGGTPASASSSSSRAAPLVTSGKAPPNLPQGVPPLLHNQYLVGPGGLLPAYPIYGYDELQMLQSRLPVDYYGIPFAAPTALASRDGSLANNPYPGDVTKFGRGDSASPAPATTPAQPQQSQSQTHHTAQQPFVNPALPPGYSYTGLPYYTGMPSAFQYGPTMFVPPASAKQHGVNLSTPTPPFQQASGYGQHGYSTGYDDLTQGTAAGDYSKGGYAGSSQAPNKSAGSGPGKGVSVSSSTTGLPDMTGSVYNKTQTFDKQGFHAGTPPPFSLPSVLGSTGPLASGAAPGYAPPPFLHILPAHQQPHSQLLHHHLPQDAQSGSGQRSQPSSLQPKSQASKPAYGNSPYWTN
T1 sequence (Q13151 whole entry): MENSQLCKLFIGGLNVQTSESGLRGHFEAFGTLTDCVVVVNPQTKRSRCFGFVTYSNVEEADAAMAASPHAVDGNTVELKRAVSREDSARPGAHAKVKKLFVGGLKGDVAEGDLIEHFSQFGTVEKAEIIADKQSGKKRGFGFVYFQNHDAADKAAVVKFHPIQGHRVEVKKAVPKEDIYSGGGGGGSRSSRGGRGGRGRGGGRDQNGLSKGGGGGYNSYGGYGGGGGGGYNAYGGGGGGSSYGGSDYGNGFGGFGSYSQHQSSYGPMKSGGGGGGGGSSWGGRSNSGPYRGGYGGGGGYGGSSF
T5 sequence (Q9NYF8 whole entry): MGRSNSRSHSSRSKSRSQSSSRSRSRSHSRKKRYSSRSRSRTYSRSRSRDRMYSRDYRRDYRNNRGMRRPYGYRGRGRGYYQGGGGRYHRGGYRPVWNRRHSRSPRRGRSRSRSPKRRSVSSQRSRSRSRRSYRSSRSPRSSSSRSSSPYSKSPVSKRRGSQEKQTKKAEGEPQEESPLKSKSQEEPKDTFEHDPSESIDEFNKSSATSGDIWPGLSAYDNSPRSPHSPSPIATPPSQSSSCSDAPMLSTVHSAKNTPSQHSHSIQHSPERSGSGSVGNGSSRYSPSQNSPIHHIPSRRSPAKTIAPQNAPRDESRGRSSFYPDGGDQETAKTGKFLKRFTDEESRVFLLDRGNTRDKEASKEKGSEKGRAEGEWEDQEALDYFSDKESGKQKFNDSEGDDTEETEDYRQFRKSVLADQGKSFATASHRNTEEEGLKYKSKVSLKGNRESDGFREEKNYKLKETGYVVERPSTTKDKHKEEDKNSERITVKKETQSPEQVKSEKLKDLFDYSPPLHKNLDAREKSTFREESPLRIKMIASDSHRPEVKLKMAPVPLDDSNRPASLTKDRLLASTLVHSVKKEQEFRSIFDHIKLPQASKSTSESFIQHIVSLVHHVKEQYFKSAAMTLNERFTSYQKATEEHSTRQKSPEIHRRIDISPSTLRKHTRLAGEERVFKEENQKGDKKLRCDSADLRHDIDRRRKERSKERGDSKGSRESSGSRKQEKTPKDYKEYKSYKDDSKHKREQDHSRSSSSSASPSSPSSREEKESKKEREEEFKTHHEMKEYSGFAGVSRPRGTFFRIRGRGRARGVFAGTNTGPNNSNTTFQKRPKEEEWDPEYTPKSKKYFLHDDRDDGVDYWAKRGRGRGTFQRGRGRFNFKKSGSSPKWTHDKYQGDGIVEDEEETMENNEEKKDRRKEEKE
T18 sequence (Q9HAU0 whole entry): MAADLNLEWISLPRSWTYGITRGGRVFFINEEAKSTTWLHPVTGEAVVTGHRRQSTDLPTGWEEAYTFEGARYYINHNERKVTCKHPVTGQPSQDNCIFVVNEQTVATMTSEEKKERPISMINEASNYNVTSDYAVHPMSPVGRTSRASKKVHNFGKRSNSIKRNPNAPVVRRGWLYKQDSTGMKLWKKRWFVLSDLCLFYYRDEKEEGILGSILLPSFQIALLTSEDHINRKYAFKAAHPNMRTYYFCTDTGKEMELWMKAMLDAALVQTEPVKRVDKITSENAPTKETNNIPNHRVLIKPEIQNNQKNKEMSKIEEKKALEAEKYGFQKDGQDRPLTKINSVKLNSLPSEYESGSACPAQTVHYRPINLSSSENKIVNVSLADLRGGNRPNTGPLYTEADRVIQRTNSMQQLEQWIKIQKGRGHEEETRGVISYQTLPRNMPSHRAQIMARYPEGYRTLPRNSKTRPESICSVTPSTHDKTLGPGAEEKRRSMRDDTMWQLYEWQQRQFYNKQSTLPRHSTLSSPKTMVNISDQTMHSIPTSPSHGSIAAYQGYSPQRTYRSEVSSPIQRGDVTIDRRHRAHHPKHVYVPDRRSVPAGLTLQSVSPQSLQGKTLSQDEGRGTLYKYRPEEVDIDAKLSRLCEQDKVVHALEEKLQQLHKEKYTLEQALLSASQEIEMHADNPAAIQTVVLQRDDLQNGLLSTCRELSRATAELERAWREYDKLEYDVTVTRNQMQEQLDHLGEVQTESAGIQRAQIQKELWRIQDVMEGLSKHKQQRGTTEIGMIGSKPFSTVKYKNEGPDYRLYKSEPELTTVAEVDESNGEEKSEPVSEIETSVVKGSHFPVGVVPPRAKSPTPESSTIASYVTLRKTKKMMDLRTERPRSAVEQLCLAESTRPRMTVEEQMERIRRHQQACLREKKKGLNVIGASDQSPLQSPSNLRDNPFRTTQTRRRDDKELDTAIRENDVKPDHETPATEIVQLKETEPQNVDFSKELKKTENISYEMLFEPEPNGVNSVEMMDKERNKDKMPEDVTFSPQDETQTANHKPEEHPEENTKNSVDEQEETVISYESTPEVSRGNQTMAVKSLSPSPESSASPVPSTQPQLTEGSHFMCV
T9 sequence (Q9HCE5 whole entry): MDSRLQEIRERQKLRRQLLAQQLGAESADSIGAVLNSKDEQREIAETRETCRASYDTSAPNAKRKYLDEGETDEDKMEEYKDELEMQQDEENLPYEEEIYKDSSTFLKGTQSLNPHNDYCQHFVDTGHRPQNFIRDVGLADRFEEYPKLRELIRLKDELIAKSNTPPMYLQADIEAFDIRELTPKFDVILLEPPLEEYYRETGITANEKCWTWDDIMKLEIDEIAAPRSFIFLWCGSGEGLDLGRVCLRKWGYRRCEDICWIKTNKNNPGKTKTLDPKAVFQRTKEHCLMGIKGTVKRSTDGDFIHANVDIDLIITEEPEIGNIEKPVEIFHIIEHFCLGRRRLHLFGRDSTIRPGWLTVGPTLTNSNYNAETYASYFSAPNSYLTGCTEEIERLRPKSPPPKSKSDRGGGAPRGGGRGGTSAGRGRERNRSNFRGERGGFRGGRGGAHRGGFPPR
T9 sequence (Q86U44 whole entry partner): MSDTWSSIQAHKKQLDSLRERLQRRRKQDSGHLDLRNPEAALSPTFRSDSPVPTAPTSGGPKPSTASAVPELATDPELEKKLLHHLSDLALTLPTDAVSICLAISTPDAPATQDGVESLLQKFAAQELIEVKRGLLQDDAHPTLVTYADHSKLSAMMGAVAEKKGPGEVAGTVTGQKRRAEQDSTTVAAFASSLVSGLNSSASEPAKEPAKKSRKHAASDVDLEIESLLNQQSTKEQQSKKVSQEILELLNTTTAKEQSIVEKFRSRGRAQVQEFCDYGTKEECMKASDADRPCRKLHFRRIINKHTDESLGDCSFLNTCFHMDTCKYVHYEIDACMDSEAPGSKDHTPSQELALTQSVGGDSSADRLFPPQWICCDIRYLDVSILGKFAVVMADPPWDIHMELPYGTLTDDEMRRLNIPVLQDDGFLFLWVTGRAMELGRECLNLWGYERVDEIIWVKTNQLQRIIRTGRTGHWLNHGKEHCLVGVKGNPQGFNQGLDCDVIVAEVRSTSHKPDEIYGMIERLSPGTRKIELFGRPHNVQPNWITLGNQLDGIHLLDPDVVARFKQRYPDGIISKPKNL
T4 sequence (Q9BXS6 whole entry): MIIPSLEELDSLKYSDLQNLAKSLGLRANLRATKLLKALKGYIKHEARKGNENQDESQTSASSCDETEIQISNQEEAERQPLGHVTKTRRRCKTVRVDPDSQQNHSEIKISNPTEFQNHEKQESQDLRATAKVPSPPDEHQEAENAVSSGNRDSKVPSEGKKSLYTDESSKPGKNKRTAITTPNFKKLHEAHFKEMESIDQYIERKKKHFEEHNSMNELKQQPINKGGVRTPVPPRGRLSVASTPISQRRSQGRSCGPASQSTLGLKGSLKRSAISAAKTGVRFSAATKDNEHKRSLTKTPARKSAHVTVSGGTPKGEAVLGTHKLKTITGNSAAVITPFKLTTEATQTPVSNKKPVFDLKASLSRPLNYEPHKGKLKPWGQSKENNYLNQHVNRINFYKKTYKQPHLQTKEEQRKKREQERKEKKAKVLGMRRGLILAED

O=C(NC1CC1)c1ccc(S(=O)(=O)n2cncn2)cc1 [HHS-0101, 4-((1H-1,2,4-triazol-1-yl)sulfonyl)-N-cyclopropylbenzamide]
liganded tyrosine site 180 (Q13151): HHS0101.Y (tyrosine sites that showed >80% reductions (SR >5) in probe labeling in cells treated with compounds (liganded sites))
liganded tyrosine site 86 (Q6N069): HHS0101.Y|HHS0701.Y (tyrosine sites that showed >80% reductions (SR >5) in probe labeling in cells treated with compounds (liganded sites))
liganded tyrosine site 49 (Q9BUT1): HHS0101.Y (tyrosine sites that showed >80% reductions (SR >5) in probe labeling in cells treated with compounds (liganded sites))
liganded tyrosine site 165 (Q9BXS6): HHS0101.Y (tyrosine sites that showed >80% reductions (SR >5) in probe labeling in cells treated with compounds (liganded sites))
liganded tyrosine site 322 (Q9NYF8): HHS0101.Y|HHS0201.Y|HHS0301.Y|HHS0401.Y (tyrosine sites that showed >80% reductions (SR >5) in probe labeling in cells treated with compounds (liganded sites))

O=C(NCC1CC1)c1ccc(S(=O)(=O)n2cncn2)cc1 [HHS-0201, 4-((1H-1,2,4-triazol-1-yl)sulfonyl)-N-(cyclopropylmethyl)benzamide]
liganded tyrosine site 578 (O43390): HHS0201.Y|HHS0301.Y|HHS0401.Y|HHS0701.Y (tyrosine sites that showed >80% reductions (SR >5) in probe labeling in cells treated with compounds (liganded sites))
liganded tyrosine site 294 (O43852): HHS0201.Y (tyrosine sites that showed >80% reductions (SR >5) in probe labeling in cells treated with compounds (liganded sites))
liganded tyrosine site 582 (Q00341): HHS0201.Y (tyrosine sites that showed >80% reductions (SR >5) in probe labeling in cells treated with compounds (liganded sites))
liganded tyrosine site 169 (Q9HCE5): HHS0201.Y|HHS0301.Y (tyrosine sites that showed >80% reductions (SR >5) in probe labeling in cells treated with compounds (liganded sites))
liganded tyrosine site 42 (Q9UFN0): HHS0201.Y|HHS0301.Y|HHS0401.Y|HHS0701.Y (tyrosine sites that showed >80% reductions (SR >5) in probe labeling in cells treated with compounds (liganded sites))

O=C(NCc1ccccc1)c1ccc(S(=O)(=O)n2cncn2)cc1 [HHS-0401, 4-((1H-1,2,4-triazol-1-yl)sulfonyl)-N-benzylbenzamide]
liganded tyrosine site 2656 (P50851): HHS0401.Y (tyrosine sites that showed >80% reductions (SR >5) in probe labeling in cells treated with compounds (liganded sites))
liganded tyrosine site 402 (P55084): HHS0401.Y (tyrosine sites that showed >80% reductions (SR >5) in probe labeling in cells treated with compounds (liganded sites))
liganded tyrosine site 371 (P57081): HHS0401.Y (tyrosine sites that showed >80% reductions (SR >5) in probe labeling in cells treated with compounds (liganded sites))
liganded tyrosine site 15 (Q13428): HHS0401.Y (tyrosine sites that showed >80% reductions (SR >5) in probe labeling in cells treated with compounds (liganded sites))
liganded tyrosine site 823 (Q5T6F2): HHS0401.Y (tyrosine sites that showed >80% reductions (SR >5) in probe labeling in cells treated with compounds (liganded sites))
liganded tyrosine site 825 (Q5T6F2): HHS0401.Y (tyrosine sites that showed >80% reductions (SR >5) in probe labeling in cells treated with compounds (liganded sites))
liganded tyrosine site 887 (Q9Y2H2): HHS0401.Y|HHS0701.Y (tyrosine sites that showed >80% reductions (SR >5) in probe labeling in cells treated with compounds (liganded sites))

O=C(c1ccc(S(=O)(=O)n2cncn2)cc1)N1CCC(c2ccccc2)CC1 [HHS-0701, (4-((1H-1,2,4-triazol-1-yl)sulfonyl)phenyl)(4-phenylpiperidin-1-yl)methanone]
liganded tyrosine site 194 (Q9H788): HHS0701.Y (tyrosine sites that showed >80% reductions (SR >5) in probe labeling in cells treated with compounds (liganded sites))
liganded tyrosine site 553 (Q9HAU0): HHS0701.Y (tyrosine sites that showed >80% reductions (SR >5) in probe labeling in cells treated with compounds (liganded sites))
